Test results as given in patent US12319681B2, “Tripartite androgen receptor eliminators, methods and uses thereof” (SPG Therapeutics, Inc., priority 2017, dated 2025).
Like-named read-outs stand apart in the source and are kept apart here.

Experiments:
[1] = system: normal Human Adult Primary Epidermal Keratinocyte cell line; conditions: 72 h
Experimental: (§3) For the Keratinocyte assay, normal Human Adult Primary Epidermal Keratinocyte cell line (ATCC PCS-200-011) was maintained in EPIUFE® Medium, with 60 μM calcium (Thermo MEPISOOCA) supplemented with Human Keratinocyte Growth Supplement, 100 U/mL penicillin, and 100 μg/mL streptomycin at 37° C. with 5% C02. For experiments, cells were seeded at 70% confluence per well in 100 μL of medium in 96-well plates. Reverse transfection was done on the cells using Lipofectamine 3000 (Life Technologies) with plasmids according to manufacturer's instructions. Briefly, 0.3 μL transfection reagent per 100 ng DNA were incubated with P3000 reagent and Opti-Mem prior to addition of cells. After 16 hours, medium was removed and replaced with dosing medium.
(§4) Each ARE tested was prepared in DMSO. Dosing medium was prepared at the time of treatment by serial diluting stock solution into medium. Ethanol concentrations in media never exceeded 0.1%. […] Negative control wells contained 100 L medium/well with 1 μL of ethanol/mL of medium and an appropriate amount of DMSO. […] Cells were incubated 72 hours at 37° C. without CO2.

in vitro = conditions: human
Experimental: as §3, §4

androgen receptor (AR) [2] = molecular target: T1, androgen receptor (AR) (Homo sapiens, UniProt P10275); experiment: Keratinocyte AR Reporter Gene Assay, 24 and 72 hours continuous exposure (Example 12); format: cell-based; conditions: keratinocytes
T1 construct: human keratinocytes transfected with an AR luciferase reporter gene; endogenous in cells; host or cells: normal human adult primary epidermal keratinocytes (ATCC PCS-200-011)
T1 sequence (P10275 1-920): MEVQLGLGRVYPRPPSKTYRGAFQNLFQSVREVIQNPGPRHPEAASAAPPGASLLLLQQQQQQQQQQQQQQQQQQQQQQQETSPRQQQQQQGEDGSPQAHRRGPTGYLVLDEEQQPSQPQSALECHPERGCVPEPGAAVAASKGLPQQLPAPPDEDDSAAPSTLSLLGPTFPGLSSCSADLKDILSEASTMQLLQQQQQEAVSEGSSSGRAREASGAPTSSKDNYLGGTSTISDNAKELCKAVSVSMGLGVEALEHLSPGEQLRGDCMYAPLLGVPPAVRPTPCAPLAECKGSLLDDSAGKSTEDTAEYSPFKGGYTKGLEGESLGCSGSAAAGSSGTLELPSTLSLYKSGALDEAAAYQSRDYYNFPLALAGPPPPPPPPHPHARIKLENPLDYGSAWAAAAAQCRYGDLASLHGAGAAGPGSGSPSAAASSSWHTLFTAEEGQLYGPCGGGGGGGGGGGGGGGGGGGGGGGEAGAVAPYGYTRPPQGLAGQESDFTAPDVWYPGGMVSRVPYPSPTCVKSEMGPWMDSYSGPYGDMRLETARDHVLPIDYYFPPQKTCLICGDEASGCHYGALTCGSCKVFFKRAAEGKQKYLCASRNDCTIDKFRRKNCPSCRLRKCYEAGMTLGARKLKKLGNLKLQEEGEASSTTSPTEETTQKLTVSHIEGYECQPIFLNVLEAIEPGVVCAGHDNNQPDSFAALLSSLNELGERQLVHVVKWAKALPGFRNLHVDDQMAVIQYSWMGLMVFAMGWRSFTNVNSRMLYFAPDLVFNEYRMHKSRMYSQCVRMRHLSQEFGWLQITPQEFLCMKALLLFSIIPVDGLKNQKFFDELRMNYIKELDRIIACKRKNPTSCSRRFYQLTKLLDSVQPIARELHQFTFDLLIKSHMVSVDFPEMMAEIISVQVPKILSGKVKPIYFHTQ
Experimental: (§1) To assess ARE-mediated inhibition, an AR luciferase assay was performed. After washing cells with 1×PBS, 20 μL lysis buffer (25 mM Tris/phosphate, 4 mM EGTA, 1% Triton, 10% glycerol, 2 mM DTT) was added per well, incubated for 5 minutes with gentle shaking and store at −80° C. On the day of assay, the plates were thawed to ambient temperature and 80 μL of assay buffer (25 mM glycylglycine, 15 mM MgCl2. 5 mM ATP, 0.1 mg/ml BSA) was added to each well. Plates are then processed on a microplate reader (POLARstar Omega) by injecting 100 μL of 1 mM D-luciferin per well, followed by chemiluminescence measurement of 3 seconds at onset of injection. Luciferase activity was determined, measured, and normalized to Relative Light Units (RLU). AR reporter gene activity reduction values were calculated as follows: AR reporter gene activity=1−(average signal (treatment group)/average signal (treatment group without drug).
This example illustrates how to determine the inhibitory activity of an ARE disclosed herein using a cell-based androgen receptor transcriptional reporter assay using primary human keratinocytes.
Results were analyzed for IC50 and IC90 values in GraphPad Prism using a four-parameter logistic curve equation. Bottom constraints were set to 1 (level of uninduced control).

[3] = system: MDA-kb2 mammary gland breast cancer cell line; experiment: MDA-kb2 cell viability (Trypan Blue exclusion); conditions: MDA-kb2, 1.0 nM DHT, 24 hours
Experimental: (§5) For the MDA-kb2 assay, MDA-kb2 mammary gland breast cancer cell line was maintained in L-15 media (Gibco) supplemented with 10% FBS, 100 U/mL penicillin, 100 μg/mL streptomycin, and 0.25 μg/mL amphotericin B at 37° C., without CO2. For experiments, cells were plated at 1.0×10^4 cells (50% confluence) per well in 100 μL of medium in 96-well plates. When cells were attached (after 6 hours), medium was removed and replaced with dosing medium containing 10% charcoal stripped FBS.
(§6) A 5α-Androstan-17β-ol-3-one (DHT) stock solution was prepared at 1,000× in ethanol. Each ARE tested was prepared in DMSO. Dosing medium was prepared at the time of treatment by serial diluting stock solution into medium. Ethanol concentrations in media never exceeded 0.1%. […] Negative control wells contained 100 μL medium/well with 1 μL of ethanol/mL of medium and an appropriate amount of DMSO. Each plate also contained 1.0 nM DHT with an ARE or without an ARE as a positive control. Cells were incubated 24 hours at 37° C. without CO2.
(§7) To assess for cell viability, cells were first visually examined under a phase-contrast microscope to record cell confluence, morphological changes, and presence of drug crystallization as well as to observe signs of cytotoxity such as, e.g., detachment, vacuolization, membrane degradation, or lack of phase brightness. After microscopic inspection, a Trypan Blue exclusion assay was performed to assess cell viability and cell number for each well. Each well was washed with 0.5 mL volume of PBS. 30 µL of Trypan Blue was added to each well for 5-10 minutes. Total cell number and total viable cell number will be counted from 1 number of fields per well, in triplicate.

[4] = system: normal Human Adult Primary Epidermal Keratinocyte cell line; experiment: Keratinocyte cell viability (Trypan Blue exclusion, Example 10); conditions: keratinocytes, 1.0 nM DHT, 24 hours
Experimental: For the Keratinocyte assay, normal Human Adult Primary Epidermal Keratinocyte cell line (ATCC PCS-200-011) was maintained in EPIUFE® Medium, with 60 μM calcium (Thermo MEPISOOCA) supplemented with Human Keratinocyte Growth Supplement, 100 U/mL penicillin, and 100 μg/mL streptomycin at 37° C. with 5% C02. For experiments, cells were seeded at 70% confluence per well in 100 μL of medium in 96-well plates. […] After 16 hours, medium was removed and replaced with dosing medium.
A 5α-Androstan-17β-ol-3-one (DHT) stock solution was prepared at 1,000× in ethanol. […] Dosing medium was prepared at the time of treatment by serial diluting stock solution into medium. Ethanol concentrations in media never exceeded 0.1%. […] Negative control wells contained 100 μL medium/well with 1 μL of ethanol/mL of medium and an appropriate amount of DMSO. Each plate also contained 1.0 nM DHT with an ARE or without an ARE as a positive control. Cells were incubated 24 hours at 37° C. without CO2.
as §7

[5] = Hamster Skin Penetration Assays; conditions: 8-hour time point
Experimental: The applied formulation dose for each sample was 10.0 μL and each sample was run in four replicates. The samples were evaluated at the 8-hour time point for compound absorption in epidermal and dermal layers and penetration into receptor medium.

androgen receptor (AR) [6] = molecular target: androgen receptor (AR) (Homo sapiens, UniProt P10275); experiment: MDA-kb2 AR luciferase reporter gene assay (1.0 nM DHT); format: cell-based; conditions: read-out: Gene Activity Reduction
Experimental: This example illustrates how to determine the inhibitory activity of an ARE disclosed herein using a cell-based androgen receptor transcriptional reporter assay using an engineered cell line.
(§2) Each ARE tested was prepared in DMSO. […] Ethanol concentrations in media never exceeded 0.1%.
as §1

androgen receptor (AR) [7] = molecular target: T1, androgen receptor (AR); experiment: Keratinocyte AR luciferase reporter gene assay (Example 10); format: cell-based; conditions: keratinocytes, 1.0 nM DHT, 24 hours, read-out: Gene Activity Reduction
Experimental: as §2, §1

androgen receptor (AR) [8] = molecular target: T1, androgen receptor (AR); experiment: Keratinocyte AR protein level ELISA (Example 10); format: cell-based; conditions: 24 h, keratinocytes, AR protein level by ELISA, read-out: AR Reduction
Experimental: as §2
To assess levels of AR, an ELISA was performed.

[9] = Keratinocyte Cell Viability Assay (Example 11, 72 hours); conditions: human
Experimental: as §3, §4

[10] = system: normal Human Adult Primary Epidermal Keratinocyte cell line; experiment: as above; conditions: keratinocytes, 72 hours, 0 μM = 100
Experimental: as §3, §4

[11] = system: MDA-kb2 mammary gland breast cancer cell line; conditions: human, 24 h
Experimental: as §5, §6, §7

For `O=C(Nc1ccc([N+](=O)[O-])cc1Cl)c1cc(Cl)ccc1O` [Niclosamide], the “Cell Viability” value ([1]; 0.62 μM) was 34.13 ± 2.99, the “Cell Viability” value ([1]; 1.85 μM) was 30.65 ± 5.98 and the “Cell Viability” value ([1]; 5.56 μM) was 25.07 ± 3.81. The “Cell Viability” value ([1]; 16.67 μM) was 15.93 ± 7.45, the “Cell Viability” value ([1]; 50 μM) was 0.20 ± 6.09 and the IC50 at 72 h (in vitro) was less than 0.2 µM.
With `Cc1ncsc1-c1ccc([C@H](C)NC(=O)[C@@H]2C[C@@H](O)CN2C(=O)[C@@H](NC(=O)COCC(=O)N2CCN(c3ccc(OC[C@H]4CO[C@](Cn5ccnc5)(c5ccc(Cl)cc5Cl)O4)cc3)CC2)C(C)(C)C)cc1` [SPG-007] the IC50 (androgen receptor (AR) [2]; 24-hr Treatment) was 4.58 µM, the IC90 (androgen receptor (AR) [2]; 24-hr Treatment) was 73.8 µM and the “Maximum Inhibition” value (androgen receptor (AR) [2]; 24-hr Treatment) was 67%. For the same compound, the IC50 (androgen receptor (AR) [2]; 72-hr Treatment) was 1.5 µM, the IC90 (androgen receptor (AR) [2]; 72-hr Treatment) was 22.2 µM and the “Maximum Inhibition” value (androgen receptor (AR) [2]; 72-hr Treatment) was 80%.
For `CC(=O)N1CCN(c2ccc(OC[C@H]3CO[C@](Cn4ccnc4)(c4ccc(Cl)cc4Cl)O3)cc2)CC1` (racemic) [SPG-002, Ketoconazole], the “Cell Viability” value ([1]; 0.62 μM) was 93.61 ± 3.38, the “Cell Viability” value ([1]; 1.85 μM) was 90.96 ± 2.34 and the “Cell Viability” value ([1]; 5.56 μM) was 71.22 ± 0.88. For the same compound, the “Cell Viability” value ([1]; 16.67 μM) was 41.59 ± 1.76, the “Cell Viability” value ([1]; 50 μM) was 7.29 ± 12.16 and the IC50 at 72 h (in vitro) was 11 µM. For the same compound, the “Cell Viability” value ([3]; 0.1 μM) was 97%, the “Cell Viability” value ([4]; 0.1 μM) was 95% and the “Cell Viability” value ([4]; 3.0 μM) was 94%. For the same compound, the “Cell Viability” value ([4]; 10 μM) was 95%.
With `CC(=O)S[C@@H]1CC2=CC(=O)CC[C@]2(C)[C@H]2CC[C@@]3(C)[C@@H](CC[C@@]34CCC(=O)O4)[C@H]12` [SPG-001, Spironolactone] the “Cell Viability” value ([1]; 0.62 μM) was 113.05 ± 1.09, the “Cell Viability” value ([1]; 1.85 μM) was 108.09 ± 1.79 and the “Cell Viability” value ([1]; 5.56 μM) was 99.27 ± 1.50. The “Cell Viability” value ([1]; 16.67 μM) was 82.73 ± 1.34, the “Cell Viability” value ([1]; 50 μM) was 58.33 ± 2.39 and the IC50 at 72 h (in vitro) was 50 µM. The “skin absorption (in words)” value [5] was “good amount”, the “skin penetration (in words)” value [5] was “good amount” and the “Cell Viability” value ([3]; 0.1 μM) was 99%. For the same compound, the “Cell Viability” value ([3]; 1.0 μM) was 98%, the “Cell Viability” value ([3]; 3.0 μM) was 98% and the “Cell Viability” value ([3]; 10 μM) was 98%. For the same compound, the “Cell Viability” value ([4]; 0.1 μM) was 92%, the “Cell Viability” value ([4]; 1.0 μM) was 94% and the “Cell Viability” value ([4]; 3.0 μM) was 92%. The “Cell Viability” value ([4]; 10 μM) was 95%.
`O=C(CC12CC3CC(CC(C3)C1)C2)NCCOCCOCC(=O)N1CCN(c2ccc(OC[C@H]3CO[C@](Cn4ccnc4)(c4ccc(Cl)cc4Cl)O3)cc2)CC1` [SPG-005] gave an inhibition at 0.1 µM (androgen receptor (AR) [6]; 0.1 μM, MDA-kb2, 1.0 nM DHT, 24 hours) of 9%, an inhibition at 1 µM (androgen receptor (AR) [6]; 1.0 μM, MDA-kb2, 1.0 nM DHT, 24 hours) of 14% and an inhibition at 3 µM (androgen receptor (AR) [6]; 3.0 μM, MDA-kb2, 1.0 nM DHT, 24 hours) of 18%. For the same compound, the inhibition at 10 µM (androgen receptor (AR) [6]; 10 μM, MDA-kb2, 1.0 nM DHT, 24 hours) was 80%, the inhibition at 0.1 µM (androgen receptor (AR) [7]) was 21% and the inhibition at 1 µM (androgen receptor (AR) [7]) was 29%. For the same compound, the inhibition at 3 µM (androgen receptor (AR) [7]) was 31%, the inhibition at 10 µM (androgen receptor (AR) [7]) was 90% and the inhibition at 0.1 µM (androgen receptor (AR) [8]) was 12%. The inhibition at 1 µM (androgen receptor (AR) [8]) was 19%, the inhibition at 3 µM (androgen receptor (AR) [8]) was 23% and the inhibition at 10 µM (androgen receptor (AR) [8]) was 65%. For the same compound, the “Cell Viability” value ([3]; 0.1 μM) was 98%, the “Cell Viability” value ([3]; 1.0 μM) was 98% and the “Cell Viability” value ([3]; 3.0 μM) was 98%. The “Cell Viability” value ([3]; 10 μM) was 98%, the IC50 at 72 h [9] was 2 µM and the “Cell Viability” value ([10]; 0.62 μM) was 77.01 ± 0.64. For the same compound, the “Cell Viability” value ([10]; 1.85 μM) was 62.57 ± 2.06, the “Cell Viability” value ([10]; 5.56 μM) was 1.98 ± 8.39 and the “Cell Viability” value ([10]; 16.67 μM) was 0.11 ± 1.77. For the same compound, the “Cell Viability” value ([10]; 50 μM) was 0.09 ± 6.41, the “Cell Viability” value ([10]; […]) was 93.72 ± 1.69 and the “Cell Viability” value ([4]; 0.1 μM) was 94%. For the same compound, the “Cell Viability” value ([4]; 1.0 μM) was 92%, the “Cell Viability” value ([4]; 3.0 μM) was 93% and the “Cell Viability” value ([4]; 10 μM) was 94%.
`O=C(CC12CC3CC(CC(C3)C1)C2)N1CCN(c2ccc(OC[C@H]3CO[C@](Cn4ccnc4)(c4ccc(Cl)cc4Cl)O3)cc2)CC1` [SPG-006] showed an inhibition at 0.1 µM (androgen receptor (AR) [7]) of 8%, an inhibition at 1 µM (androgen receptor (AR) [7]) of 19% and an inhibition at 3 µM (androgen receptor (AR) [7]) of 28%. It also gave an inhibition at 10 µM (androgen receptor (AR) [7]) of 48%, an inhibition at 0.1 µM (androgen receptor (AR) [8]) of 1% and an inhibition at 1 µM (androgen receptor (AR) [8]) of 5%. The inhibition at 3 µM (androgen receptor (AR) [8]) was 20%, the inhibition at 10 µM (androgen receptor (AR) [8]) was 37% and the “Cell Viability” value ([4]; 0.1 μM) was 93%. The “Cell Viability” value ([4]; 1.0 μM) was 94%, the “Cell Viability” value ([4]; 3.0 μM) was 94% and the “Cell Viability” value ([4]; 10 μM) was 94%.
In the case of `CC12CCC(=O)C=C1C[C@@H](SC(=O)COCCOCCNC(=O)CC13CC4CC(CC(C4)C1)C3)C1C2CCC2(C)C1CC[C@@]21CCC(=O)O1` (stereo partly shown) [SPG-004], the inhibition at 0.1 µM (androgen receptor (AR) [6]; MDA-kb2, 24 h) is reported as 11%, the inhibition at 1 µM (androgen receptor (AR) [6]; MDA-kb2, 24 h) is reported as 22% and the inhibition at 3 µM (androgen receptor (AR) [6]; MDA-kb2, 24 h) is reported as 36%. For the same compound, the inhibition at 10 µM (androgen receptor (AR) [6]; MDA-kb2, 24 h) was 42%, the “Cell Viability” value ([11]; 0.1 μM) was 97% and the “Cell Viability” value ([11]; 1 μM) was 98%. The “Cell Viability” value ([11]; 3 μM) was 99% and the “Cell Viability” value ([11]; 10 μM) was 98%.
In the case of `Cc1ncsc1-c1ccc([C@H](C)NC(=O)[C@@H]2C[C@@H](O)CN2C(=O)[C@@H](NC(=O)COCCOCCOCC(=O)N2CCN(c3ccc(OC[C@H]4CO[C@](Cn5ccnc5)(c5ccc(Cl)cc5Cl)O4)cc3)CC2)C(C)(C)C)cc1` [SPG-008], the IC50 (androgen receptor (AR) [2]; 24-hr Treatment) is reported as 3.31 µM, the IC90 (androgen receptor (AR) [2]; 24-hr Treatment) is reported as 8.4 µM and the “Maximum Inhibition” value (androgen receptor (AR) [2]; 24-hr Treatment) is reported as 94%. For the same compound, the IC50 (androgen receptor (AR) [2]; 72-hr Treatment) was 2.38 µM, the IC90 (androgen receptor (AR) [2]; 72-hr Treatment) was 7.86 µM and the “Maximum Inhibition” value (androgen receptor (AR) [2]; 72-hr Treatment) was 94%.
